Experimental data from the supplement of paper PMC10307832.

compound: CO[C@@H]1[C@H](N(C)C(=O)c2ccccc2)C[C@H]2O[C@]1(C)n1c3ccccc3c3c4c(c5c6ccccc6n2c5c31)C(=O)NC4 [Midostaurin] + COc1cc2c(Oc3ccc(NC(=O)C4(C(=O)Nc5ccc(F)cc5)CC4)cc3F)ccnc2cc1OCCCN1CCOCC1 [Foretinib] (partner 0.25 µM); assay: relative viability (nuclei count vs DMSO), 5 days (fraction); higher = more cells survive; details: first compound 0.1 µM
Outline: (§1)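 The day after seeding in 1536-well plates, lung cancer cell lines were treated by pin tool with a single drug, or with a fixed anchor-drug dose together with five library-drug doses (not always all listed) in √10 steps. After 5 days, a combined fix-and-stain solution (final 0.05% Triton X-100, 1% formaldehyde, 1 ug/ml Hoechst) was added. Nuclei counted on 4× images gave relative viability as treated counts over vehicle counts, reported as the median of duplicate plates.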

Cell Line | relative viability
NCI-H3122 | 0.718
NCI-H1437 | 1.22
NCI-H1755 | 0.787
NCI-H2023 | 0.686
HCC-15 | 1.04
NCI-H1793 | 0.533
PC-14 | 0.909
EKVX | 0.702
LC-2-ad | 0.914
NCI-H1944 | 0.711
NCI-H1975 | 0.952
RERF-LC-KJ | 0.939
PC-3 [JPC-3] | 1.02

same assay, conditions: first compound 0.3162 µM

Cell Line | relative viability
NCI-H3122 | 0.976
NCI-H1437 | 1.22
NCI-H1755 | 0.628
NCI-H2023 | 0.631
HCC-15 | 1.05
NCI-H1793 | 0.369
PC-14 | 0.899
EKVX | 0.78
LC-2-ad | 1.04
NCI-H1944 | 0.853
NCI-H1975 | 0.647
RERF-LC-KJ | 0.936
PC-3 [JPC-3] | 0.959

compound: COc1cc(-c2nn([C@H]3CC[C@H](N4CCN(C(C)=O)CC4)CC3)c3ncnc(N)c23)ccc1NC(=O)c1cc2ccccc2n1C + CC1(C)CCC(c2ccc(Cl)cc2)=C(CN2CCN(c3ccc(C(=O)NS(=O)(=O)c4ccc(N[C@H](CCN5CCOCC5)CSc5ccccc5)c(S(=O)(=O)C(F)(F)F)c4)cc3)CC2)C1 [Navitoclax] (partner 0.5 µM); assay: as above; details: first compound 0.0128 µM
Outline: as §1

Cell Line | relative viability
NCI-H3122 | 1.03
NCI-H1437 | 1.09
NCI-H1755 | 1.09
NCI-H2023 | 0.999
HCC-15 | 0.755
NCI-H1793 | 0.5
PC-14 | 1.05
EKVX | 1.05
LC-2-ad | 0.509
NCI-H1944 | 1.04
NCI-H1975 | 1.11
RERF-LC-KJ | 0.829
PC-3 [JPC-3] | 0.904

same assay, conditions: first compound 0.04048 µM

Cell Line | relative viability
NCI-H1437 | 1.1
NCI-H1755 | 1.01
NCI-H2023 | 1.06
HCC-15 | 0.59
NCI-H1793 | 0.571
PC-14 | 1.05
EKVX | 1.03
LC-2-ad | 0.429
NCI-H1944 | 0.999
NCI-H1975 | 1.17
RERF-LC-KJ | 1.09
PC-3 [JPC-3] | 0.803

same assay, conditions: first compound 0.128 µM

Cell Line | relative viability
NCI-H3122 | 1.01
NCI-H1437 | 1.05
NCI-H1755 | 0.927
NCI-H2023 | 1.02
HCC-15 | 0.672
NCI-H1793 | 0.332
PC-14 | 0.987
EKVX | 0.957
LC-2-ad | 0.473
NCI-H1944 | 0.982
NCI-H1975 | 1.08
RERF-LC-KJ | 0.94
PC-3 [JPC-3] | 0.776

same assay, conditions: first compound 1.28 µM

Cell Line | relative viability
NCI-H3122 | 0.869
NCI-H1437 | 1.02
NCI-H1755 | 0.803
NCI-H2023 | 0.835
HCC-15 | 0.454
NCI-H1793 | 0.258
PC-14 | 1.21
EKVX | 0.384
LC-2-ad | 0.389
NCI-H1944 | 0.764
NCI-H1975 | 0.697
RERF-LC-KJ | 0.837
PC-3 [JPC-3] | 0.86

compound: CO[C@@H]1[C@H](N(C)C(=O)c2ccccc2)C[C@H]2O[C@]1(C)n1c3ccccc3c3c4c(c5c6ccccc6n2c5c31)C(=O)NC4 [Midostaurin] + Cc1cc(Nc2cc(N3CCN(C)CC3)nc(Sc3ccc(NC(=O)C4CC4)cc3)n2)n[nH]1 [Tozasertib] (partner 0.1 µM); assay: as above; details: first compound 0.01 µM
Outline: as §1

Cell Line | relative viability
NCI-H3122 | 0.365
NCI-H1437 | 0.453
NCI-H1755 | 0.521
NCI-H2023 | 0.408
HCC-15 | 0.449
NCI-H1793 | 0.38
PC-14 | 0.616
EKVX | 0.369
LC-2-ad | 0.509
NCI-H1944 | 0.268
NCI-H1975 | 0.732
RERF-LC-KJ | 0.47
PC-3 [JPC-3] | 0.886

same assay, conditions: first compound 0.03162 µM

Cell Line | relative viability
NCI-H3122 | 0.283
NCI-H1437 | 0.477
NCI-H1755 | 0.614
NCI-H2023 | 0.316
HCC-15 | 0.419
NCI-H1793 | 0.39
PC-14 | 0.574
EKVX | 0.414
LC-2-ad | 0.545
NCI-H1944 | 0.269
NCI-H1975 | 0.763
RERF-LC-KJ | 0.464
PC-3 [JPC-3] | 0.809

same assay, conditions: first compound 0.1 µM

Cell Line | relative viability
NCI-H3122 | 0.386
NCI-H1437 | 0.401
NCI-H1755 | 0.535
NCI-H2023 | 0.29
HCC-15 | 0.249
NCI-H1793 | 0.313
PC-14 | 0.598
EKVX | 0.366
LC-2-ad | 0.52
NCI-H1944 | 0.261
NCI-H1975 | 0.716
RERF-LC-KJ | 0.433
PC-3 [JPC-3] | 0.865

same assay, conditions: first compound 0.3162 µM

Cell Line | relative viability
NCI-H3122 | 0.336
NCI-H1437 | 0.403
NCI-H1755 | 0.547
NCI-H2023 | 0.171
HCC-15 | 0.324
NCI-H1793 | 0.184
PC-14 | 0.491
EKVX | 0.343
LC-2-ad | 0.422
NCI-H1944 | 0.232
NCI-H1975 | 0.37
RERF-LC-KJ | 0.321
PC-3 [JPC-3] | 0.867
